What was measured:
[1] = Liquid; for mass density: 298.15 K, 101.33 kPa
[2] = refractive index (Na D-line) (dimensionless); details: 298.15 K; 101.33 kPa; Liquid; Standard Abbe refractometry

CC(C)CO [2-methyl-1-propanol]
Details	mass density [kg/m3]	refractive index
[1]	797.83	–
[2]	–	1.3937

CN(C)C=O [dimethylformamide]
Details	mass density [kg/m3]	refractive index
[1]	948.72	–
[2]	–	1.4265

[1]
Details	vapor or sublimation pressure [kPa]
345.45 K	6.3
350.38 K	7.81
354.51 K	9.27
359.05 K	11.16
362.74 K	12.93
366.7 K	15.07
370.69 K	17.53
374.89 K	20.48
379.24 K	23.95
382.97 K	27.32
386.75 K	31.1
390.07 K	34.78
393.2 K	38.56
396.61 K	43.04
399.91 K	47.82
403.1 K	52.73
405.94 K	57.53
408.79 K	62.66
411.23 K	67.37
413.35 K	71.68
415.66 K	76.65
417.84 K	81.58
419.86 K	86.33
421.87 K	91.37
423.7 K	96.06
425.6 K	101.2

CC(=O)OCC(C)C [2-methylpropyl ethanoate]
Details	mass density [kg/m3]	refractive index
[1]	866.12	–
[2]	–	1.3876
